In patent US20040096951A1, “Crystal structures of retaining glycosytransferases” (priority 2003, published 2004):
Counter-ions that a name gives are not always drawn.

How the values were obtained:
[1] = biological target: T1, LgtC (Neisseria meningitidis, UniProt Q93EK7); experiment: biochemical; type: biochemical; conditions: for Function as a substrate for LgtC (transfer): galactosyl β-1,6-lactose incubated in the presence of UDP plus the usual buffer components
T1 construct: a deletion mutant of LgtC missing the C-terminal 25 residues; made in house; host or cells: E. coli (AD202)
T1 sequence (Q93EK7 entry or part of it): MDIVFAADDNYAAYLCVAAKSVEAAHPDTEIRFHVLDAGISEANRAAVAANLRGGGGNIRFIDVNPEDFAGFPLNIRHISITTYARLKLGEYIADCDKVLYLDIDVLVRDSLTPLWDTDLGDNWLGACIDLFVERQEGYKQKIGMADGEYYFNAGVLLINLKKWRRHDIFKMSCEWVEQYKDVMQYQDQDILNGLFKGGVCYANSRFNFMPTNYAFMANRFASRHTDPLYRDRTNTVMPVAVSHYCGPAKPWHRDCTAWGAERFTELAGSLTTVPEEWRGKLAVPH
Description: (§1) Synthesis of UDP-2Fgal was achieved essentially as described previously (ref. 19). Syntheses of 4′-deoxylactose, 6′-deoxylactose and galactosyl β-1,6-lactose will be described elsewhere. Kinetic studies were performed at 30° C. in 20 mM HEPES, pH 7.5 containing 0.1% bovine serum albumin, 50 mM KCl, 5 mM MnCl2 and 5 mM DTT. […] The change in absorbance was measured by means of a UNICAM 8700 UV-Vis spectrophotometer equipped with a circulating water bath. Kinetic parameters were calculated by direct fit of the initial rates to the respective equations using Grafit version 3.0 (ref.43).

[2] = test system: two other galactosyltransferases; conditions: shown previously; cited from earlier work
[3] = biological target: T2, LgtC (Neisseria meningitidis, UniProt Q93EK7, Q189A); experiment: biochemical; type: biochemical; conditions: Q189A mutant; added reagent
T2 construct: a deletion mutant of LgtC missing the C-terminal 25 residues; made in house; host or cells: E. coli (AD202)
T2 sequence (Q93EK7 1-286 Q189A): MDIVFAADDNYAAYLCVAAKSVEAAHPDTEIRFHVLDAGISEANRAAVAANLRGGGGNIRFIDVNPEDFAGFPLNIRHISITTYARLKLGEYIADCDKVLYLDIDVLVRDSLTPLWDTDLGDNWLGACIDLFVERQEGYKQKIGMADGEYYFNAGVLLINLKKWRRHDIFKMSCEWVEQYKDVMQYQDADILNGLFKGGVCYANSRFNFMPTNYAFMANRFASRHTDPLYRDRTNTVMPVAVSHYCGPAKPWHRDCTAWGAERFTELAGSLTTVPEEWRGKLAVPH
Description: as §1

[4] = test system: OC[C@H]1O[C@@H](O[C@H]2[C@H](O)[C@@H](O)C(O)O[C@@H]2CO)[C@H](O)[C@@H](O)[C@H]1O; experiment: purified protein, by the assay type; type: biochemical, Neisseria meningitidis; conditions: other: LgtC wild type; acceptor substrate; pH 7.5; 30.0 °C

Compound	Function as a substrate for LgtC (transfer) ([1]; LgtC)	Rescue of activity of the Q189A mutant by added small molecules (rate increase) [3]	also measured
OC[C@@H]1C[C@H](O)[C@@H](O)[C@H](O[C@H]2[C@H](O)[C@@H](O)C(O)O[C@@H]2CO)O1 (some centres unmarked) [4-deoxylactose, 4′-Deoxylactose]	cannot function as a substrate	–	Ki [1]: 16 mM
C[C@H]1OC(O)[C@H](O)[C@@H](O)[C@@H]1O[C@@H]1O[C@H](CO)[C@H](O)[C@H](O)[C@H]1O (some centres unmarked) [6-deoxylactose]	shown not to function as a substrate	–	Action as an inhibitor of LgtC ([1]; LgtC): neither did it act as an inhibitor
O=c1ccn([C@@H]2O[C@H](COP(=O)(O)OP(=O)(O)O[C@H]3O[C@H](CO)[C@H](O)[C@H](O)[C@H]3F)[C@@H](O)[C@H]2O)c(=O)[nH]1 [UDP-2FGal, Uridine 5′-diphospho-(2-deoxy-2-fluoro)-α-D-galactopyranose, di-ammonium Salt, reference compound]	no transfer occurs	–	Ki [1]: 0.002 mM; Inhibition of other galactosyltransferases [2]: shown to inhibit
CC(N)=O [acetamide]	–	No rate increases were observed	–
CC(=O)O [acetate]	–	No rate increases were observed	–
[N-]=[N+]=[N-] [azide]	–	No rate increases were observed	–
NC=O [formamide]	–	No rate increases were observed	–
O=CO [formate]	–	No rate increases were observed	–
LgtC (Neisseria meningitidis)	–	–	Km [4]: 20 mM
galactosyl β-1,6-lactose	does not function as a substrate	–	–
